Positions of bridges follow the written chain, without caps; N, C: chain ends. Residues, ends and D or L forms follow the SMILES beside them.

Data on two compounds can be found in PMC2826609 (Peptides, 2009).

Test [1] has as its target Aedes aegypti allatostatin-C receptor AeAS-CrA (Aedes aegypti, UniProt A0A411JKC3). The format is cell-based.
In test [2] the target is Aedes aegypti allatostatin-C receptor AeAS-CrB (Aedes aegypti, UniProt A0A411JKA7). The test is classed as cell-based.

By EC50 is commonly meant the concentration giving half of the maximal effect. A low value points to a more potent agent. `CC[C@H](C)[C@H](NC(=O)[C@@H](N)CCC(N)=O)C(=O)N[C@@H](CCCNC(=N)N)C(=O)N[C@@H](Cc1ccc(O)cc1)C(=O)N[C@@H](CCCNC(=N)N)C(=O)N[C@@H](CCC(N)=O)C(=O)N[C@H]1CSSC[C@@H](C(=O)N[C@@H](Cc2ccccc2)C(=O)O)NC(=O)[C@H](CO)NC(=O)[C@H]([C@@H](C)CC)NC(=O)[C@@H]2CCCN2C(=O)[C@H](CC(N)=O)NC(=O)[C@H](Cc2ccccc2)NC(=O)[C@H](Cc2ccc(O)cc2)NC1=O` [AS-C] (H-QIRYRQCYFNPISCF-OH; disulfide 7-14): the EC50 in test [1] was 89 ± 18.5 nM; in test [2], 27.7 ± 7.2 nM.
On to APFRNSEMMTARGF [AT], for which the “FLIPR signal, peptide selectivity (AeAS-CrA)” value in test [1] (AeAS-CrA, HEK293T/Gα16gust44 cells, results not shown) was “no signal was detected”. In addition, the “FLIPR signal, peptide selectivity (AeAS-CrB)” value in test [2] (AeAS-CrB, HEK293T/Gα16gust44 cells, results not shown) is given as “no signal was detected”.
